Laboratory results: patent US20040228930A1, “Treatment for hemorrhagic shock” (priority 2002, published 2004)

Tests used:
Assay type in all cases: in vivo
IL-6 = test: Serum IL-6 by ELISA in mice subjected to HS/R; conditions: CO 250 ppm throughout HS/R, 4 hours after resuscitation, P<0.05 vs untreated HS/R mice
Experimental: (§1) Hemorrhagic shock was induced in mice as follows: C57/BL6 or il-10^−/− mice (Jackson Laboratories) (n=3/group) weighing 20-26 grams were anesthetized with pentobarbital (70 mg/kg; IP). The right and left femoral arteries were cannulated. The left arterial catheter was connected to a monitor to follow MAP and heart rate. Over 10 minutes, blood was withdrawn via the right catheter while monitoring blood pressure to achieve an MAP of 25 mmHg. Blood was withdrawn and returned to the animal as necessary in order to maintain a MAP of 25 mmHg. Sham animals were cannulated but not subjected to hemorrhage. At the end of the shock period (90-150 minutes), mice were resuscitated with the shed blood plus two times that volume with Ringer's lactate solution over 15-30 minutes. Animals were sacrificed 4-24 hours following the initiation of resuscitation and blood, liver, lungs, and intestines were collected.
(§2) Serum levels of the cytokines interleukin-6 (IL-6), tumor necrosis factor alpha (TNF-α), and interleukin-10 (IL-10) were determined by enzyme-linked immunosorbent assay (ELISA) (R&D systems) according to the manufacturer's instructions. These cytokines were measured because they mediate inflammation. Levels of pro-inflammatory cytokines can increase following hemorrhagic shock and can exacerbate hemodynamics and contribute to the development of multiple organ dysfunction. […]

IL-10 = test: Serum IL-10 by ELISA in mice subjected to HS/R; conditions: CO 250 ppm throughout HS/R, 4 hours after resuscitation, P<0.05 vs sham and shock controls
Experimental: as §1, §2

mice subjected to HS/R [1] = test: Serum ALT (liver injury) in mice subjected to HS/R
Experimental: as §1
(§3) A colorimetric analysis for serum alanine aminotransferase (ALT) level was used to determine whether liver injury occurred in mice subjected to HS/R. The alanine aminotransferase test is one of a group of tests known as liver function tests and is used to monitor damage to the liver. Alanine aminotransferase is an enzyme that is normally expressed in the liver and under normal circumstances is present in serum samples at very low levels. Increased levels of ALT in the serum are indicative of liver cell death and/or liver failure.
Mice were exposed to CO at a concentration of 250 ppm. Briefly, 1% CO in air was mixed with air (21% oxygen) in a stainless steel mixing cylinder and then directed into a 3.70 ft^3 glass exposure chamber at a flow rate of 12 L/min. A CO analyzer (Interscan, Chatsworth, Calif.) was used to measure CO levels continuously in the chamber. CO concentrations were maintained at 250 ppm at all times. Mice were placed in the exposure chamber as required. […]

mice subjected to HS/R [2] = test: Lung myeloperoxidase (MPO) activity in mice subjected to HS/R
mice subjected to HS/R [3] = test: Intestinal histology (H&E) in mice subjected to HS/R; conditions: CO 250 ppm throughout HS/R, 4 hours after resuscitation
Experimental: as §1
Harvested intestines were flushed and fixed in 2% paraformaldehyde for 2 hours and then 30% sucrose for 12 hours. Specimens were frozen slowly in cold 2-methylbutane. Sections were stained using hematoxylin and eosin (H&E) and architectural changes were evaluated.
Mice were exposed to CO at a concentration of 250 ppm. Briefly, 1% CO in air was mixed with air (21% oxygen) in a stainless steel mixing cylinder and then directed into a 3.70 ft^3 glass exposure chamber at a flow rate of 12 L/min. […]

[4] = system: hemorrhage-induced liver hypoxia; test: EF5 hypoxic imaging of liver in hemorrhaged mice
Experimental: as §1
The technique of observing uptake of EF5 (2-[2-nitro-1H-imidazol-1-yl]-N-(2,2,3,3,3-pentafluoropropyl) acetamide) to monitor tissue hypoxia is well established and reliable. […] Intensity of staining was determined by measuring mean fluorescence in 10 different sections per animal (n=5 per group; MetaMorph®). […] These forms of the compound bind irreversibly to proteins within the cell, which can then be detected by immunohistochemistry. […]

[5] = system: il-10−/− mice subjected to HS/R; test: Serum ALT in il-10−/− mice subjected to HS/R
Experimental: as §1
as §3, with “Increased levels of ALT in the serum are indicative of liver cell death and/or liver failure.” left out

[6] = system: il-10−/− mice subjected to HS/R; test: Lung MPO activity in il-10−/− mice subjected to HS/R
[7] = CO 250 ppm throughout HS/R, 4 hours after resuscitation, P<0.05

[C-]#[O+] [CO, carbon monoxide]
HS/R-induced increase in serum IL-6 (IL-6): significantly abrogated
increase in serum IL-10 levels in shocked mice (IL-10): 5.4 fold
serum ALT compared to untreated mice (mice subjected to HS/R [1]; [7]): significantly lowered
serum ALT compared to untreated shocked mice (mice subjected to HS/R [1]; CO during resuscitation only, 24 hours after resuscitation): significantly lower
protection against liver injury (mice subjected to HS/R [1]; CO initiated during resuscitation only, 4-hour time point following resuscitation (data not shown)): no demonstrable protection
lung MPO activity compared to untreated mice (mice subjected to HS/R [2]; [7]): significantly lowered
lung MPO activity (mice subjected to HS/R [2]; CO initiated during resuscitation only, after 4 hours): significantly improved
intestinal histology of CO-treated shocked mice (mice subjected to HS/R [3]): more closely resembled CO- and air-treated sham controls
liver hypoxia (EF5) compared to air-treated sham controls ([4]; CO-treated sham controls, 250 ppm): no increase
increase in liver EF5 staining compared to air-treated sham controls ([4]; shocked mice, CO 250 ppm initiated at onset of shock, 90 minutes after initiation of shock, P<0.05 vs air-treated shocked mice): 3.7±0.7 fold
protection against HS/R-induced liver injury (serum ALT) [5]: did not appear to protect
protection against HS/R-induced lung injury (lung MPO activity) [6]: did not appear to protect
